As a reminder, the pIC50 is the IC50 on a negative log10 scale, so that one unit is a factor of ten.

pIC50: −log10 of the molar value.

One experiment deals with MCF7. The experiment can be described thus: Cytotoxicity against human MCF7 cells assessed as reduction in cell viability incubated for 96 hrs by MTT method. The note with it: MCF7, 96 h. The format is functional, cell-based.
The test system of another experiment is MDA-MB-231. Briefly: Cytotoxicity against human MDA-MB-231 cells assessed as reduction in cell viability incubated for 96 hrs by MTT method. Format: functional, cell-based. The following applies: MDA-MB-231, 96 h.
The next experiment relates to MDA-MB-468. Briefly: Cytotoxicity against human MDA-MB-468 cells assessed as reduction in cell viability incubated for 96 hrs by MTT method. The note with it: MDA-MB-468, 96 h. The format is functional, cell-based. For orientation: Tetrazolium dyes change colour on reduction, which living cells bring about.
The test system of another experiment is L02. The experiment can be described thus: Cytotoxicity against human L02 cells assessed as reduction in cell viability incubated for 96 hrs by MTT method. The following applies: L02, 96 h. The format is cell-based.
Another experiment relates to HEK293. The experiment can be described thus: Cytotoxicity against HEK-293 cells assessed as reduction in cell viability incubated for 96 hrs by MTT method. The format is cell-based. The following applies: Homo sapiens, HEK293, 96 h.
For a further experiment, the system named is MCF-10A. Briefly: Cytotoxicity against human MCF-10A cells assessed as reduction in cell viability incubated for 96 hrs by MTT method. Format: cell-based.

On to `C=C(C)CC(=O)O[C@@H]1C[C@@H]2C(C)(C)CC[C@@H](O)[C@@]2(C)C(=O)CC[C@@H]2C=C1C(=O)C2=C`, for which the pIC50 in the experiment with MCF7 was 5.92; with MDA-MB-231, 6.25; in the experiment on MDA-MB-468, 6.05.
For `CC1(C)C(=O)CC[C@]2(C)[C@@H]1CC[C@]13C[C@H]4C[C@H](O[C@@]4(C)C1)[C@H]32`, in that order: under 5.30, under 5.30 and under 5.30.
For `C[C@H]1C(=O)C2=C[C@H]1CCC(=O)[C@]1(C)[C@H](O)CCC(C)(C)[C@H]1C[C@H]2O`, in that order: under 5.30, under 5.30 and under 5.30.
For `C=C1C(=O)C2=C[C@H]1CCC(=O)[C@]1(C)[C@H](O)CCC(C)(C)[C@H]1C[C@H]2OC(=O)CCl`, in that order: 5.96, 6.26 and 6.04.
Take `C=C1C(=O)C2=C[C@H]1CCC(=O)[C@]1(C)C(=O)CCC(C)(C)[C@H]1C[C@H]2OC(=O)c1ccccc1`: the pIC50 with MCF7 is 6.05; with MDA-MB-231, 5.70; in the experiment on MDA-MB-468, 5.68.
For `C=C1C(=O)C2=C[C@H]1CCC(=O)[C@]1(C)[C@H](O)CCC(C)(C)[C@H]1C[C@H]2OC(=O)CC`, in that order: 6.00, 6.01 and 6.05.
For `CC1(C)C(=O)CC[C@]2(C)[C@@H]1CC[C@@]13C[C@@H](CC[C@H]12)[C@@](O)(CO)C3`, in that order: under 5.30, under 5.30 and under 5.30.
For `C=CC(=O)O[C@@H]1C[C@@H]2C(C)(C)CC[C@@H](O)[C@@]2(C)C(=O)CC[C@@H]2C=C1C(=O)C2=C`, in that order: 5.91, 6.78 and 6.42.
Turning to `C=C1C(=O)C2=C[C@H]1CCC(=O)[C@@]1(C)[C@H](C[C@H]2OCC)C(C)(C)CC[C@H]1OC(C)=O`, the pIC50 was 6.58 in the experiment on MCF7, 6.17 with MDA-MB-231 and 6.63 in the experiment with MDA-MB-468.
In the case of `C=C1C(=O)[C@]23O[C@H]2[C@H]1CCC(=O)[C@]1(C)[C@H](O)CCC(C)(C)[C@H]1C[C@H]3O`, the pIC50 is 5.80 with MCF7, 6.33 in the experiment on MDA-MB-231 and 6.50 with MDA-MB-468.
For `C=C1C(=O)[C@@]23[C@H](O)C[C@@H]4C(C)(C)CC[C@@H](O)[C@@]4(C)[C@]2(O)CC[C@@H]1[C@H]3O`, in that order: 6.61, 6.82 and 6.94.
For `C=C1C(=O)C2=C[C@H]1CCC(=O)[C@@]1(C)[C@H](C[C@H]2O)C(C)(C)CC[C@H]1OC(C)=O`, in that order: 6.92, 6.75 and 6.64.
For `C=CC(=O)O[C@@H]1C[C@@H]2C(C)(C)CC[C@@H](OC(=O)C=C)[C@@]2(C)C(=O)CC[C@@H]2C=C1C(=O)C2=C`, in that order: 5.95, 6.63 and 6.40.
In the case of `C=C1C(=O)C2=C[C@H]1CCC(=O)[C@]1(C)[C@H](O)CCC(C)(C)[C@H]1C[C@H]2OC(C)=O`, the pIC50 in the experiment with MCF7 was 6.23; in the experiment on MDA-MB-231 it was 6.25; with MDA-MB-468, 6.59.
For `CC1(C)C(=O)CC[C@]2(C)[C@@H]1CC[C@@]13C[C@@H](CC[C@H]12)[C@@H](CO)C3`, in that order: under 5.30, under 5.30 and under 5.30.
For `C=C1C(=O)C2=C[C@H]1CCC(=O)[C@@]1(C)[C@H](C[C@H]2OC(C)=O)C(C)(C)CC[C@H]1OC(C)=O`, in that order: 6.65, 6.01 and 6.12.
For `C=C1C(=O)C2=C[C@H]1CCC(=O)[C@]1(C)C(=O)CCC(C)(C)[C@H]1C[C@H]2OC(C)=O`, in that order: 6.27, 7.54 and 6.67.
`C=C1C(=O)C2=C[C@H]1CCC(=O)[C@]1(C)[C@H](O)CCC(C)(C)[C@H]1C[C@H]2OC`: the figures for the pIC50 in the experiment with MCF7, in the experiment with MDA-MB-231 and with MDA-MB-468 were 6.67, 6.73 and 6.92, respectively.
For `C[C@H]1C(=O)[C@]23C[C@H]1CC[C@@]2(O)[C@]1(C)[C@H](O)CCC(C)(C)[C@H]1C[C@H]3O`, in that order: under 5.30, under 5.30 and under 5.30.
On to `COc1cccc2c1C(=O)c1c(O)c3c(c(O)c1C2=O)C[C@@](O)(C(=O)CO)C[C@@H]3O[C@H]1C[C@H](N)[C@H](O)[C@H](C)O1` [DOXORUBICIN], for which the pIC50 is 7.09 in the experiment on MDA-MB-231; 6.59 in the experiment with L02; 6.97 in the experiment with HEK293; 7.28 with MDA-MB-468; 7.48 in the experiment with MCF-10A.
Turning to `C=C1C(=O)C2=C[C@H]1CCC(=O)[C@]1(C)[C@H](O)CCC(C)(C)[C@H]1C[C@H]2OC(=O)c1ccccc1`, the values for the pIC50 in the experiment with MCF7, in the experiment on MDA-MB-231 and with MDA-MB-468 were 6.00, 6.33 and 6.52, respectively.
`C=C1C(=O)C2=C[C@H]1CCC(=O)[C@]1(C)C(=O)CCC(C)(C)[C@H]1C[C@H]2O`: the figures for the pIC50 with MCF7, with MDA-MB-231 and in the experiment on MDA-MB-468 were 6.42, 6.91 and 6.71, respectively.
For `C=C1C(=O)O[C@H]2C3=C(CC[C@@H]12)[C@@]1(C)[C@H](CC3=O)C(C)(C)CC[C@H]1OC(C)=O`, in that order: 5.91, 5.75 and 6.07.
For `C=C1C(=O)C2=C[C@H]1CCC(=O)[C@]1(C)C(=O)CCC(C)(C)[C@H]1C[C@H]2OC(=O)CCl`, in that order: 6.30, 5.79 and 6.46.
For `C=C1C(=O)C2=C[C@H]1CCC(=O)[C@@]1(C)[C@H](C[C@H]2OC(=O)CCl)C(C)(C)CC[C@H]1OC(C)=O`, in that order: 6.63, 5.97 and 6.19.

The values above are taken from ChEMBL document CHEMBL5036330, “Discovery of 8,9-seco-ent-Kaurane Diterpenoids as Potential Leads for the Treatment of Triple-Negative Breast Cancer” (J Med Chem, 2021).
